Reference: patent publication US5248691A, “Furanoindolines” (Eli Lilly and Company, priority 1992, dated 1993)
In brackets after ≈: the same amount, converted by molar mass. Where two headings read alike, the source gives them in different places.

Columns and labels:
[1] = tested on: human squamous cell lung carcinoma (T222); assay: In vitro cytotoxicity, [3H]leucine uptake, T222 cells; type: cell-based; settings: for IC50: read-out: IC50 (50% cytotoxic concentration)
Method: (§1) The cytotoxicities of 4-12 were determined by incubation (48 hours) of drug with a human squamous cell lung carcinoma (T222) and percent inhibition determined by measurement of [^3 H]leucine uptake. T222 (Masui, et al. Cancer, 44(3): 1002-1007, 1984) human squamous carcinoma and P3/UCLA (Varki, et al., Cancer Res. 44: 681-687, 1984) human lung carcinoma cells were grown in DMEM medium supplemented with 10% fetal bovine serum and 50 ug/mL gentamicin using standard tissue culture techniques. 1×10^4 target cells were distributed in each well of 96 well tissue culture plates and incubated in leucine deficient medium (leucine free DMEM plus 13 ug/mL L-leucine, 29.2 ug/mL L glutamine, 50 ug/mL gentamicin and 10% dialyzed fetal calf serum) for 16 hours at 37° C. in 5% CO2. The medium was then removed aseptically and compound dilutions were added in 200 ul of leucine deficient medium. Following an additional 48 hour incubation, 4 uCi ^3 H-leucine (NEN, Boston, Mass.) were added to each well and the plates were returned to the incubator for 24 hours. Radioactivity incorporated into macromolecules was determined using an automated cell harvester and liquid scintillation techniques. Data were evaluated as percent reduction in incorporation of radioactivity relative to controls incubated in medium without compound to yield an 50% cytotoxic concentration (IC50).

T222 tumor = assay: Nude mouse xenograft, T222 tumor burden (i.v.); type: in vivo, nude mice; design: inhibition of growth of tumors (in words): dose or concentration left out as unconfirmed; settings: for Number of Deaths/Number of Mice / Percent Inhibition of Tumor Growth: days 3, 5 and 7
Method: Prior to each xenograft experiment, cells were collected by treatment with Trypsin/EDTA (Gibco, Life Technologies, Grand Island, N.Y.) and washed with supplemented DMEM and finally suspended in Hanks balanced salt solution. 1×10^7 cells were injected s.c. into the flank of young adult female nude mice (Charles River Breeding Laboratories, Boston, Mass.). The mice were treated by i.v. injection in the tail vein at various time points. Tumor measurements were taken in two dimensions and converted to an estimate of mass using the formula [(length) (width^2)/2] as described by Geran, et al.. Cancer Chemother. Rep., 3:1-103, 1972. Control groups contained 10 mice with test groups containing 5 mice each. The Student test was used to evaluate differences between mean tumor masses.

[2] = tested on: human lung adenocarcinoma (P3/UCLA); assay: In vitro cytotoxicity, similar protocol, P3/UCLA cells; type: cell-based
Method: as §1

[3] = tested on: minor groove of double stranded DNA; settings: cited from earlier work
[4] = single intravenous subtherapeutic dose; healthy mice; cited from earlier work
[5] = T222 human squamous cell lung carcinoma, 48 hours incubation, [3H]leucine uptake

Cc1coc2c(O)cc3c(c12)C(CCl)CN3C(=O)c1cc2cc(NC(=O)c3cc4ccccc4s3)ccc2o1 (single isomer, unassigned; (+)) [Compound 9]
IC50 [1, 5]: 0.56 ng/mL (≈ 1.01 nM)

Cc1coc2c(O)cc3c(c12)C(CCl)CN3C(=O)c1cc2cc(NC(=O)c3cc4ccccc4[nH]3)ccc2o1 (single isomer, unassigned; (+)) [Compound 7]
IC50 [1, 5]: 0.23 ng/mL (≈ 0.426 nM)

Cc1coc2c(O)cc3c(c12)C(CCl)CN3C(=O)c1cc2cc(NC(=O)c3cc4ccccc4s3)ccc2[nH]1 (single isomer, unassigned; (+)) [Compound 6]
IC50 [1, 5]: 0.2 ng/mL (≈ 0.36 nM)

Cc1coc2c(O)cc3c(c12)C(CCl)CN3C(=O)c1cc2cc(NC(=O)c3cc4ccccc4[nH]3)ccc2s1 (single isomer, unassigned; (+)) [Compound 10]
IC50 [1, 5]: 0.29 ng/mL (≈ 0.522 nM)

Cc1coc2c(O)cc3c(c12)C(CCl)CN3C(=O)c1cc2cc(NC(=O)c3cc4ccccc4s3)ccc2s1 (single isomer, unassigned; (+)) [Compound 12]
IC50 [1, 5]: 0.2 ng/mL (≈ 0.349 nM)

Cc1coc2c(O)cc3c(c12)C(CCl)CN3C(=O)c1cc2cc(NC(=O)c3cc4ccccc4o3)ccc2o1 (single isomer, unassigned; (+)) [Compound 8]
IC50 [1, 5]: 0.37 ng/mL (≈ 0.684 nM)

CCC1(O)CC2CN(CCc3c([nH]c4ccccc34)C(C(=O)OC)(c3cc4c(cc3OC)N(C)C3C(O)(C(=O)NN)C(O)C5(CC)C=CCN6CCC43C65)C2)C1 (stereo not shown) [4-desacetylvinblastine-3-carboxhydrazide, reference compound]
IC50 ([1]; Homo sapiens, T222, 48 h): 3 ng/mL (≈ 3.9 nM)

Cc1coc2c(O)cc3c(c12)C(CCl)CN3C(=O)c1cc2cc(NC(=O)c3cc4ccccc4[nH]3)ccc2[nH]1 (single isomer, unassigned; (+)) [Compound 4]
Number of Deaths/Number of Mice (T222 tumor; 0.05 mg/kg i.v.): 0/5 | Percent Inhibition of Tumor Growth (T222 tumor; 0.05 mg/kg i.v.): 68% | Number of Deaths/Number of Mice (T222 tumor; 0.1 mg/kg i.v.): 0/5 | Percent Inhibition of Tumor Growth (T222 tumor; 0.1 mg/kg i.v.): 73% | Number of Deaths/Number of Mice (T222 tumor; 0.2 mg/kg i.v.): 1/5 | Percent Inhibition of Tumor Growth (T222 tumor; 0.2 mg/kg i.v.): 85% | Number of Deaths/Number of Mice (T222 tumor; 0.4 mg/kg i.v.): 5/5 | inhibition of growth of tumors (in words) (T222 tumor; intravenously on days 3, 5 and 7, T222 burden injected s.c. at day 0): inhibited the growth of tumors | IC50 [2]: 0.27 ng/mL (≈ 0.501 nM) | IC50 [1, 5]: 0.17 ng/mL (≈ 0.315 nM)

Cc1coc2c(O)cc3c(c12)C(CCl)CN3C(=O)c1cc2cc(NC(=O)c3cc4ccccc4[nH]3)ccc2[nH]1 (stereo not drawn) [enantiomer of 4]
antineoplastic potency relative to 4 ([1]; T222 cell line, compared with 4): approximately ten fold less potent

COc1c(O)c2c(c3cc(C(=O)N4CCc5c4c(O)c(OC)c4[nH]c(C(=O)N6CC7CC78C6=CC(=O)c6[nH]cc(C)c68)cc54)[nH]c13)CCN2C(N)=O (stereo not shown) [CC-1065]
DNA binding [3]: binds covalently to the minor groove of double stranded DNA | delayed deaths / hepatotoxicity [4]: led to delayed deaths of healthy mice as a result of the hepatotoxicity

Cc1coc2c(O)cc3c(c12)C(CCl)CN3C(=O)c1cc2cc(NC(=O)c3cc4ccccc4o3)ccc2s1 (single isomer, unassigned; (+)) [Compound 11]
IC50 [1, 5]: 0.26 ng/mL (≈ 0.467 nM)

Cc1coc2c(O)cc3c(c12)C(CCl)CN3C(=O)c1cc2cc(NC(=O)c3cc4ccccc4o3)ccc2[nH]1 (single isomer, unassigned; (+)) [Compound 5]
IC50 [1, 5]: 0.15 ng/mL (≈ 0.278 nM)
